Measured values published in patent US5506102A (priority 1993, dated 1996).

What was measured:
[1] = biological target: T1, glucocorticoid receptor (GR) (Homo sapiens, UniProt P04150); details: high concentrations, dexamethasone present, FIG. 8B
T1 sequence (P04150 1-777): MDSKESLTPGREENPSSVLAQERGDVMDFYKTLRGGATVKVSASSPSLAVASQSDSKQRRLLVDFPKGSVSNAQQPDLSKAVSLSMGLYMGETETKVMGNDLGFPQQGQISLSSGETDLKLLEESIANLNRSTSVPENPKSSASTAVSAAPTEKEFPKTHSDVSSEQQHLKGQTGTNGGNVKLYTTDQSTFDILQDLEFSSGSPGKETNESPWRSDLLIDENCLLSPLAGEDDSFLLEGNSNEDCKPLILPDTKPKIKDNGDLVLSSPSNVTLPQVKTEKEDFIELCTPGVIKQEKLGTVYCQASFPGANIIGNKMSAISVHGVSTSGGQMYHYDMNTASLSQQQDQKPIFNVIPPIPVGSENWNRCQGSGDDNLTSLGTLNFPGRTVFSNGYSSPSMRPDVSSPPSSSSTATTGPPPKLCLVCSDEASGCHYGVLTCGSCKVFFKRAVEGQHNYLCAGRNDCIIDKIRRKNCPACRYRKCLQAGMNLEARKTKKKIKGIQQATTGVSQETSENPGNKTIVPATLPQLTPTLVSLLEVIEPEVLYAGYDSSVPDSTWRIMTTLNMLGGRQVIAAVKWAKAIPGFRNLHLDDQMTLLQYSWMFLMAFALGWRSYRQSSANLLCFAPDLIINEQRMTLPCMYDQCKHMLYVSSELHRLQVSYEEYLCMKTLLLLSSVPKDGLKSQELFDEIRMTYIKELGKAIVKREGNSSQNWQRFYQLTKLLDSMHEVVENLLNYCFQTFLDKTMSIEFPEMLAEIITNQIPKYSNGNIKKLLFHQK
Protocol: Cells were seeded in 12-well, 96-well or 10 cm tissue culture plates. […] 20 μg of DNA/ml of transfection buffer were used in each transfection reaction. In this mix, the concentration of the luciferase plasmids and that of the internal control plasmid pCH110 (Pharmacia, Inc.), which contains the gene for the β-galactosidase enzyme, remained constant ([…] of each plasmid DNA), while the receptor plasmid concentration varied as indicated for each experiment. Different amounts of receptor parental plasmid, pSV2-neo (Dr. Bert O'Malley, Baylor College of Medicine, Houston, Tex.) was included to keep constant the total amount of the SV40 enhancer vectors. pGEM4 plasmid DNA (Promega Biotech, Madison, Wis.) was added to balance the total DNA concentration to 20 g/reaction. For the 96-well plate experiments, transfections were performed on a Biomek 1000 Automated Laboratory Workstation (Beckman Instruments, Fullerton, Calif.).
Cells were seeded 24 hours prior to transfection in the fiat-bottom tissue culture plates ([…]) in phenol red-free DMEM containing 10% FCS. […] Using calcium phosphate co-precipitation, DNA solution was added dropwise with vortexing into an equal volume of 2X HBS pH 6.9 (280 mM NaCl. 50 mM HEPES, 1.5 mM Na2 HPO4) and precipitates were allowed to form for 20 minutes. Cells were transfected ( […] of DNA mix/well) for 6 hours and then washed with phosphate-bufferedsaline (PBS) to remove the precipitate. Cells were incubated for an additional 24 hours in phenol red-free medium containing 10% charcoal-treated FCS, with or without hormones as indicated in the text. Cell extracts were prepared as described by Berger et al., Supra, and assayed for luciferase and β-galactosidase activities. All determinations were performed in triplicates in at least two independent experiments, and were normalized for transfection efficiency by using β-galactosidase as an internal control.

human estrogen receptor = assay: ER transcriptional activity on MMTV-ERE-LUC, CV-1 cells, ER co-expressed with PR-B; assay type: cell-based; details: 10^-7 M 17β-estradiol, FIG. 11D
Protocol: All values were normalized for transfection efficiency by simultaneous estimation of luciferase and β-galactocidase activities. The relative luciferase activity is calculated by dividing the normalized luciferase value at a given point by that obtained in the absence of transfected receptor or ligand. Data shown represent the mean +/- the average deviation from the mean of triplicate estimations.
Vegeto et al., supra. Cells were plated into 96-well tissue culture plates. The vector DNA was introduced into the CV-1 cells using calcium phosphate coprecipitation as described herein. More specifically, 20 μg of DNA/ml of transfection buffer were used in each transfection. Each transfection mix included 0.5 μg of pRST7hER, 9.5 μg of MMTV-ERE-LUC, 5 μg of pCH110, (which contains the gene for β-galactosidase) as an internal control and 5 μg of PGEM4 DNA as a carrier. […] The concentration of pXVhPR-A vector chosen was determined by performing the experiment at several different concentrations of vector, and then using that concentration that was optimal for transcriptional readout. […] The Normalized LUC activity was calculated by dividing the raw luciferase (×10^4) units for each point by the β-galactosidase activity [(OD415 nm ×10^5)/time min.] at that point.

direct inhibition of GR function [1]	Compound	inhibition of ER function with hPR-B (human estrogen receptor)
directly inhibited GR function	CC#C[C@]1(O)CC[C@H]2[C@@H]3CCC4=CC(=O)CCC4=C3[C@@H](c3ccc(C(C)=O)cc3)C[C@@]21C [ZK112993]	–
–	CC(=O)[C@H]1CC[C@H]2[C@@H]3CCC4=CC(=O)CC[C@]4(C)[C@H]3CC[C@]12C [progesterone]	hPR-B will not inhibit
